# Source: ChEMBL document CHEMBL5620405, “A platform for the rapid synthesis of molecular glues (Rapid-Glue) under miniaturized conditions for direct biological screening” (Eur J Med Chem, 2023)
# System: RS4-11
# Experiment: Antiproliferative activity against human RS4-11 cells assessed as reduction in cell viability measured after 72 hrs by Alamar blue assay
# Assay type: functional, cell-based
# Conditions: RS4-11, 72 h
row,SMILES,IC50 [nM]
1,O=C1CCC(N2Cc3cc(CNC(=O)C(F)(F)c4ccc(Cl)cc4)ccc3C2=O)C(=O)N1 (configuration not stated),0.1

# System: MOLT-4
# Experiment: Antiproliferative activity against human MOLT-4 cells assessed as cell viability at 1 uM measured after 72 hrs by Alamar blue assay
# Assay type: functional
# Conditions: read-out: Activity
row,SMILES,viability at 1 µM [%]
1,CN1C(=O)CCC(N2Cc3cc(-c4ccc(OCC(=O)N/N=C/c5c(Cl)ccc(C(F)(F)F)c5Cl)cc4)ccc3C2=O)C1=O (configuration not stated),> 100
2,O=C(COc1ccc(-c2ccc3c(c2)CN(C2CCC(=O)NC2=O)C3=O)cc1)N/N=C/c1c(Cl)ccc(C(F)(F)F)c1Cl (configuration not stated),74
3,CN1C(=O)CCC(N2Cc3cc(-c4ccc(OCC(=O)N/N=C/c5c(C(F)(F)F)ccc(Cl)c5Cl)cc4)ccc3C2=O)C1=O (configuration not stated),> 100
4,O=C(COc1ccc(-c2ccc3c(c2)CN(C2CCC(=O)NC2=O)C3=O)cc1)N/N=C/c1c(C(F)(F)F)ccc(Cl)c1Cl (configuration not stated),67

# System: RS4-11
# Experiment: Antiproliferative activity against human RS4-11 cells assessed as cell viability at 1 uM measured after 72 hrs by Alamar blue assay
# Assay type: functional
# Conditions: read-out: Activity
row,SMILES,viability at 1 µM [%]
1,CN1C(=O)CCC(N2Cc3cc(-c4ccc(OCC(=O)N/N=C/c5c(Cl)ccc(C(F)(F)F)c5Cl)cc4)ccc3C2=O)C1=O (configuration not stated),> 100
2,O=C(COc1ccc(-c2ccc3c(c2)CN(C2CCC(=O)NC2=O)C3=O)cc1)N/N=C/c1c(Cl)ccc(C(F)(F)F)c1Cl (configuration not stated),47
3,CN1C(=O)CCC(N2Cc3cc(-c4ccc(OCC(=O)N/N=C/c5c(C(F)(F)F)ccc(Cl)c5Cl)cc4)ccc3C2=O)C1=O (configuration not stated),> 100
4,O=C(COc1ccc(-c2ccc3c(c2)CN(C2CCC(=O)NC2=O)C3=O)cc1)N/N=C/c1c(C(F)(F)F)ccc(Cl)c1Cl (configuration not stated),54

# Molecular target: Protein cereblon/Eukaryotic peptide chain release factor GTP-binding subunit ERF3A (Homo sapiens, UniProt Q96SW2+P15170)
# Sequence (Q96SW2 whole entry): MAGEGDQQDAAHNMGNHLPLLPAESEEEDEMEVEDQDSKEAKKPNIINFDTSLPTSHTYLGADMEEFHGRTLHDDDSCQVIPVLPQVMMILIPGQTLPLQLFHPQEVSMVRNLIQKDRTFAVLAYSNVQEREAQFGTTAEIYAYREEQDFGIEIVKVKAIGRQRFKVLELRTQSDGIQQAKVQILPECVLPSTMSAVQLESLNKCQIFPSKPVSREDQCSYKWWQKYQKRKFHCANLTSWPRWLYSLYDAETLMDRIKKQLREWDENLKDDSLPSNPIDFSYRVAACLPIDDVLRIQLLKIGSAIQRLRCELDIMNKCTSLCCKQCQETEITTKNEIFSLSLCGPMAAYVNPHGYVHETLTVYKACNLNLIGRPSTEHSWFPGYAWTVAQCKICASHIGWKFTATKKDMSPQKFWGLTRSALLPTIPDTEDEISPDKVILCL
# Sequence (P15170 whole entry): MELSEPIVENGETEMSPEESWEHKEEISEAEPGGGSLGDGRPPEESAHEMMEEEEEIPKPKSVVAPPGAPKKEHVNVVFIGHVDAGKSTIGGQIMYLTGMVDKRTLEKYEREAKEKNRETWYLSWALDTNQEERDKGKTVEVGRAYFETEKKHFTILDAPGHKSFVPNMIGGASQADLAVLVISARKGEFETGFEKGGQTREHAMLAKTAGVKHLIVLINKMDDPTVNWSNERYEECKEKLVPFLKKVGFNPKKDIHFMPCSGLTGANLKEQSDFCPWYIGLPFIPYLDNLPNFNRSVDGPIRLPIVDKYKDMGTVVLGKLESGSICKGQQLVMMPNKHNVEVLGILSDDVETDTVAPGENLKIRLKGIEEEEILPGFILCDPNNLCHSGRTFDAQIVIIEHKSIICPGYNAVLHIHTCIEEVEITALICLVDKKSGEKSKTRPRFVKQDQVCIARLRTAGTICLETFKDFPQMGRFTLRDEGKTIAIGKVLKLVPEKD
# Experiment: Molecular glue activity at CRBN/GSPT1 in human RS4-11 cells assessed as induction of GSPT1 degradation by western blot analysis
# Assay type: cell-based
# Conditions: not given
row,DC50 [nM],SMILES
1,166,O=C(COc1ccccc1-c1cccc2c1CN(C1CCC(=O)NC1=O)C2=O)NCc1cn(S(=O)(=O)c2ccccc2)c2ccccc12 (configuration not stated)
2,168,O=C(COc1ccccc1-c1cccc2c1CN(C1CCC(=O)NC1=O)C2=O)NCCc1cn(S(=O)(=O)c2ccccc2)c2ccccc12 (configuration not stated)
3,785,O=C(COc1ccccc1-c1cccc2c1CN(C1CCC(=O)NC1=O)C2=O)NCc1nn(Cc2ccccc2)c2ccccc12 (configuration not stated)
